Here are results for 14 compounds from ChEMBL document CHEMBL1133949, “Development of C-20 modified betulinic acid derivatives as antitumor agents” (Bioorg Med Chem Lett, 2001).

For one assay, the system named is UACC-257. Briefly: Cytotoxicity of compound against human melanoma cell lines (UACC-257) using MTT assay. Format: functional.
The subject of assay [1] is SK-MEL-2. The experiment in a line: Cytotoxicity of compound against SK-MEL-2 using SRB assay. Format: functional, cell-based, Homo sapiens. In general terms: Sulforhodamine B stains cellular protein and so reports cell mass.
In another assay the test system is PC-3. The experiment in a line: Cytotoxicity of compound against human prostate adenocarcinoma (PC3) using SRB assay. Format: functional, cell-based, Prostate gland.
For assay [2], the system named is SK-MEL-2. Briefly: Cytotoxicity of compound against human melanoma cell lines (SK-MEL-2) using MTT assay. Format: functional. (In general: Tetrazolium dyes change colour on reduction, which living cells bring about.)
The subject of a further assay is HCT-116. Briefly: Cytotoxicity of compound against human colon carcinoma (HCT116) using MTT assay. Format: functional.
Another assay relates to M14. The experiment in a line: Cytotoxicity of compound against human melanoma cell lines (M14-MEL) using MTT assay. It is filed as functional.

In the case of `C=C(CO)[C@@H]1CC[C@]2(C(=O)O)CC[C@]3(C)[C@H](CC[C@@H]4[C@@]5(C)CC[C@H](O)C(C)(C)[C@@H]5CC[C@]43C)[C@@H]12`, the GI50 – broadly, the concentration giving 50% growth inhibition – in the assay on UACC-257 is above 50 µM; in the assay with SK-MEL-2 [2], above 9.3 µM; in the assay on HCT-116, above 9.8 µM; with M14, above 16.2 µM. For the same compound, the EC50 (in general, the concentration at which the effect is half-maximal) with SK-MEL-2 [1] was above 9 µM; with PC-3, above 8.4 µM.
`C=C(C)[C@@H]1CC[C@]2(C(=O)O)CC[C@]3(C)[C@H](CC[C@@H]4[C@@]5(C)CC[C@H](O)C(C)(C)[C@@H]5CC[C@]43C)[C@@H]12` [BETULINIC ACID]: the GI50 turned out to be 1.5 µM in the assay on UACC-257, 3.2 µM in the assay on SK-MEL-2 [2], 2.7 µM in the assay on HCT-116 and 2.7 µM in the assay on M14. Besides, the EC50 in the assay with SK-MEL-2 [1] was 2.2 µM; in the assay on PC-3 it was 1.9 µM.
`CO/N=C(/C)[C@@H]1CC[C@]2(C(=O)O)CC[C@]3(C)[C@H](CC[C@@H]4[C@@]5(C)CC[C@H](O)C(C)(C)[C@@H]5CC[C@]43C)[C@@H]12`: the GI50 with UACC-257, with SK-MEL-2 [2], in the assay with HCT-116 and in the assay on M14 was above 50 µM in each case. Further, the EC50 with SK-MEL-2 [1] and in the assay with PC-3 was above 50 µM in each case.
Consider `CO/N=C1\CC[C@]2(C)[C@H]3CC[C@@H]4[C@H]5[C@H](C(C)C)CC[C@]5(C(=O)O)CC[C@@]4(C)[C@]3(C)CC[C@H]2C1(C)C`, for which the concentration giving a half-maximal response (EC50) with SK-MEL-2 [1] is above 21.2 µM; in the assay on PC-3, above 16.4 µM.
In the same order, the values of `C=C(CNOC)[C@@H]1CC[C@]2(C(=O)O)CC[C@]3(C)[C@H](CC[C@@H]4[C@@]5(C)CC[C@H](O)C(C)(C)[C@@H]5CC[C@]43C)[C@@H]12` are above 50 µM and above 50 µM.
As to `C/C(=N/O)[C@@H]1CC[C@]2(C(=O)O)CC[C@]3(C)[C@H](CC[C@@H]4[C@@]5(C)CC[C@H](O)C(C)(C)[C@@H]5CC[C@]43C)[C@@H]12`, the GI50 in the assay on UACC-257, in the assay on SK-MEL-2 [2], in the assay on HCT-116 and with M14 was above 50 µM throughout. Moreover, the EC50 in the assay with SK-MEL-2 [1] and in the assay with PC-3 was above 50 µM in each case.
As to `CC(C)[C@@H]1CC[C@]2(C(=O)O)CC[C@]3(C)[C@H](CC[C@@H]4[C@@]5(C)CC/C(=N\O)C(C)(C)[C@@H]5CC[C@]43C)[C@@H]12`, the figures for the 50% effective concentration (EC50) in the assay on SK-MEL-2 [1] and in the assay with PC-3 were above 3.4 µM and above 3 µM, respectively.
As for `C=C(C)[C@@H]1CC[C@]2(C(=O)O)CC[C@]3(C)[C@H](CC[C@@H]4[C@@]5(C)CC[C@H](OC(C)=O)C(C)(C)[C@@H]5CC[C@]43C)[C@@H]12`, the GI50 in the assay with UACC-257 was above 4.5 µM; in the assay on SK-MEL-2 [2] it was above 3.9 µM; in the assay with HCT-116, above 11.3 µM; with M14, above 6.4 µM. Besides, the EC50 in the assay with SK-MEL-2 [1] is above 6.9 µM; with PC-3, above 7.2 µM.
Regarding `CC(C)[C@@H]1CC[C@]2(C(=O)O)CC[C@]3(C)C(CCC4[C@@]5(C)CC[C@H](O)C(C)(C)C5CC[C@]43C)C12` (stereo not given in full) [DIHYDROBETULINIC ACID], the EC50 with SK-MEL-2 [1] is above 2 µM; with PC-3, above 2.2 µM.
In the same order, the values of `CC(C)[C@@H]1CC[C@]2(C(=O)O)CC[C@]3(C)[C@H](CC[C@@H]4[C@@]5(C)CCC(=O)C(C)(C)[C@@H]5CC[C@]43C)[C@@H]12` [DIHYDROBETULONIC ACID] are above 1.6 µM and above 1.3 µM.
In the same order, the values of `C=C(CNO)[C@@H]1CC[C@]2(C(=O)O)CC[C@]3(C)[C@H](CC[C@@H]4[C@@]5(C)CC[C@H](O)C(C)(C)[C@@H]5CC[C@]43C)[C@@H]12` are above 50 µM and above 50 µM.
Regarding `CC(=O)[C@@H]1CC[C@]2(C(=O)O)CC[C@]3(C)[C@H](CC[C@@H]4[C@@]5(C)CC[C@H](O)C(C)(C)[C@@H]5CC[C@]43C)[C@@H]12` [PLATANIC ACID], the concentration for 50% growth inhibition (GI50) in the assay on UACC-257, in the assay on SK-MEL-2 [2], in the assay on HCT-116 and in the assay with M14 was above 50 µM each time. For the same compound, the half-maximal effective concentration (EC50) with SK-MEL-2 [1] and in the assay on PC-3 was above 50 µM each time.
As to `C=C(COC)[C@@H]1CC[C@]2(C(=O)O)CC[C@]3(C)[C@H](CC[C@@H]4[C@@]5(C)CC[C@H](O)C(C)(C)[C@@H]5CC[C@]43C)[C@@H]12`, the GI50 with UACC-257 was above 12.7 µM; with SK-MEL-2 [2] it was above 50 µM; with HCT-116 it was above 8.6 µM; in the assay with M14, above 9 µM. Further, the EC50 with SK-MEL-2 [1] is above 10.1 µM; in the assay on PC-3, above 9.4 µM.
With `CC(O)[C@@H]1CC[C@]2(C(=O)O)CC[C@]3(C)[C@H](CC[C@@H]4[C@@]5(C)CC[C@H](O)C(C)(C)[C@@H]5CC[C@]43C)[C@@H]12` (stereo not given in full), the GI50 in the assay on UACC-257, with SK-MEL-2 [2], in the assay on HCT-116 and in the assay on M14 was above 50 µM each time. The EC50 in the assay on SK-MEL-2 [1] and in the assay with PC-3 was above 50 µM in each case.
